Source: patent publication US12522575B2, “2-diarylmethyl-4-aminotetrahydropyran derivatives and related compounds as anticancer, antiinflammatory, antifibrotic and neuroprotective agents” (Atux Iskay LLC, priority 2021, dated 2026)

Columns and labels:
Assay type in all cases: cell-based
[1] = test system: D425 medulloblastoma cells; test: D425 cell viability / proliferation (CellTiter-Glo); conditions: for IC50: Medulloblastoma cell, 48 hours treatment, CellTiter-Glo, read-out: IC50 for D425 cell growth
Protocol: D425 medulloblastoma cells were purchased from SigmaAldrich. D425 meduloblastoma cells were cultured in improved Dulbecco's modified Eagle's medium (DMEM) Richter's modification supplemented with 20% fetal bovine serum and 1% Penicillin-streptomycin. Incubation was performed at 37° C. and 5% CO2.
D425 cells were seeded at 3000-3500 cells/90 ul growth medium per well on 96-well tissue culture plates. Cells were incubated overnight to allow them to recover. Next day cells were treated with tested compounds and incubated for 48 hours.
Cell Proliferation assays in triplicate were performed at each concentration. Compounds test range was 1-30 μM (0, 5, 10, 15, 20, 25, and 30). The compounds were dissolved in DMSO. A series of dilutions were made in 1% DMSO in growth medium so that the final concentration of DMSO is 0.1% in all of treatments.
After treatment, cells were allowed to equilibrate at room temperature for one hour. Cell proliferation was measured by Luminescence quantification using Promega CellTiter-Glo Luminescent Cell Viability Assay. To perform the assay, 90 ul of Celltiter-Glo substrate was added to each well, plates were shake for 2 minutes and allowed to equilibrate for 10 minutes at room temperature. Luminescence intensity was measured using the Spectramax i3x plate reader.
(§1) The Luminescence intensity data were analyzed using the computer software Graphpad Prism. In the absence of the compound, the luminescence intensity (Lt) in each data set was defined as 100% cell viability. The percent cell in the presence of each compound was calculated according to the following equation: % Cell=L/Lt, were L=the luminescence intensity in the presence of the compound.
The values of % cell versus a series of compound concentrations (0, 5, 10, 15, 20, 25, and 30 μM) were then plotted using Nonlinear regression analysis of Sigmoidal dose-response curve. IC50 value was determined by the concentration causing a half-maximal percent activity.

[2] = test system: A172 glioblastoma cells; test: A172 cell viability / proliferation (CellTiter-Glo); conditions: Homo sapiens, A 172, 48-72 hours treatment, read-out: IC50 for A172 cell growth
Protocol: (§2) A172 glioblastoma cells were cultured in Dulbecco's modified Eagle's medium (DMEM) supplemented with 10% fetal bovine serum and 1% Penicillin-streptomycin. Incubation was performed at 37° C. and 5% CO2.
A172 cells were seeded at 3000-3500 cells/90 μL growth medium per well on 96-well tissue culture plates. Cells were incubated overnight to allow them to recover and reattach. Next day cells were treated with tested compounds and incubated for 48-72 hours.
Cell Proliferation assays in triplicate were performed at each concentration. Compounds test range was 1-30 µM (0, 5, 10, 15, 20, 25, and 30). The compounds were dissolved in DMSO. […]
After treatment, cells were allowed to equilibrate at room temperature for 1/2 to one hour. Cell proliferation was measured by Luminescence quantification using Promega CellTiter-Glo Luminescent Cell Viability Assay. […] Luminescence intensity was measured using the Spectramax i3× plate reader.
as §1, with “compound. […]” for “compound.”

[3] = test system: phosphatase activity in ApoE transfected A172 glioblastoma cells; test: Cellular in vitro phosphatase activation assay (Malachite Green) in ApoE transfected A172 cells; conditions: 24 hours
Protocol: Cellular in vitro phosphatase activation assay was performed using the method of Theendakara et al, Molecular and Cellular Neuroscience, 83 (2017), pages 83-91 which is described below:
as §2
A172 cells were seeded at 5×10^5 cells/2.5 ml growth medium (without antibiotics) per well on 6-well tissue culture plates. Cells were incubated overnight to allow them to recover and reattach. […]
After 24 hrs, cells were washed twice with imidazole buffer and lysed using NP-40 Lysis buffer. […] The amount of phosphate release in the assay was determined by measuring absorbance at 620 nm using the Spectramax i3x plate reader.
The absorbance intensity data were analyzed using the computer software Graphpad Prism. The phosphate concentration for each sample was determined from the standard curve using phosphate standard concentrations. In order to compare samples, the first set (column A) were there was no transfection performed and no compound added, was designated a baseline; the absorbance measurement in this column was set as 100% phosphatase activity.

Compound | IC50 [1] [µM] | further results
O=S(=O)(NC1CCOC(C2c3ccccc3CCc3ccccc32)C1)c1ccc(OC(F)(F)F)cc1 (racemic) [Example 2, N-(2-(10,11-dihydro-5H-dibenzo[a,d][7]annulen-5-yl)tetrahydro-2H-pyran-4-yl)-4-(trifluoromethoxy)benzenesulfonamide] | 10.3 | IC50 [2]: 14.7 µM; % increase from ApoE transfected cell at 5 μM test compound concentration [3]: 7.2%
O=S(=O)(N[C@H]1CCO[C@@H](C2c3ccccc3CCc3ccccc32)C1)c1ccc(OC(F)(F)F)cc1 (single isomer, unassigned) [Example 7] | 5.3 | –
O=S(=O)(NC1CCOC(C2c3ccccc3CCc3ccccc32)C1)c1ccc(Cl)cc1 (stereo not drawn) [Example 9, 4-chloro-N-(2-(10,11-dihydro-5H-dibenzo[a,d][7]annulen-5-yl)tetrahydro-2H-pyran-4-yl)benzenesulfonamide] | 6.6 | –
O=S(=O)(NC1CCOC(C2c3ccccc3CCc3ccccc32)C1)c1ccc(C(F)(F)F)cc1 (stereo not drawn) [Example 10, N-(2-(10,11-dihydro-5H-dibenzo[a,d][7]annulen-5-yl)tetrahydro-2H-pyran-4-yl)-4-(trifluoromethyl)benzenesulfonamide] | 6 | –
Cc1ccc(S(=O)(=O)NC2CCOC(C3c4ccccc4CCc4ccccc43)C2)cc1 (stereo not drawn) [Example 11, N-(2-(10,11-dihydro-5H-dibenzo[a,d][7]annulen-5-yl)tetrahydro-2H-pyran-4-yl)-4-meth ylbenzenesulfonamide] | 9.5 | –
O=S(=O)(NC1CCOC(C2c3ccccc3CCc3ccccc32)C1)c1ccc(Br)cc1 (stereo not drawn) [Example 12, 4-bromo-N-(2-(10,11-dihydro-5H-dibenzo[a,d][7]annulen-5-yl)tetrahydro-2H-pyran-4-yl)benzenesulfonamide] | 6.2 | –
O=S(=O)(NC1CCOC(C2c3ccccc3CCc3ccccc32)C1)c1cccc(C(F)(F)F)c1 (stereo not drawn) [Example 13, N-(2-(10,11-dihydro-5H-dibenzo[a,d][7]annulen-5-yl)tetrahydro-2H-pyran-4-yl)-3-(trifluoromethyl)benzenesulfonamide] | 5.1 | –
O=C(NC1CCOC(C2c3ccccc3CCc3ccccc32)C1)c1ccc(OC(F)(F)F)cc1 (stereo not drawn) [Example 14, N-(2-(10,11-dihydro-5H-dibenzo[a,d][7]annulen-5-yl)tetrahydro-2H-pyran-4-yl)-4-(trifluoromethoxy)benzamide] | – | D425 cell growth, effect at single concentration ([1]; @ 30 μM, 48 hours): ~50% @ 30 μM
O=S(=O)(NC1CCOC(C(c2ccccc2)c2ccccc2)C1)c1ccc(OC(F)(F)F)cc1 (stereo not drawn) [Example 15, N-(2-benzhydryltetrahydro-2H-pyran-4-yl)-4-(trifluoromethoxy)benzenesulfonamide] | 11.2 | –
O=S(=O)(NC1CCOC(C(c2ccc(F)cc2)c2ccc(F)cc2)C1)c1ccc(OC(F)(F)F)cc1 (stereo not drawn) [Example 16, N-(2-(bis(4-fluorophenyl)methyl)tetrahydro-2H-pyran-4-yl)-4-(trifluoromethoxy)benzenesulfonamide] | 7.3 | –
